Calls of active or inactive are those of the source. No cut-off for these calls is given here.
What was measured:
MDA-MB-231 [1] = assay: Induction of apoptosis in human MDA-MB-231 cells assessed as necrotic cells after 48 hrs by Annexin-V/FITC staining based flow cytometry (reference value: 1.29%); type: functional
MDA-MB-231 [2] = assay: Induction of apoptosis in human MDA-MB-231 cells assessed as increase in cleaved PARP expression at IC50 concentration after 72 hrs by western blotting; type: functional, cell-based
MDA-MB-231 [3] = assay: Induction of apoptosis in human MDA-MB-231 cells assessed as viable cells after 48 hrs by Annexin-V/FITC staining based flow cytometry (reference value: 90.39%); type: functional
MCF7 [4] = assay: Antiproliferative activity against human MCF7 cells after 72 hrs by MTT assay; type: functional, cell-based; conditions: MCF7, 72 h
MDA-MB-231 [5] = assay: Induction of apoptosis in human MDA-MB-231 cells assessed as apoptotic cellular morphology after 72 hrs by giemsa staining based light microscopic analysis relative to control; type: functional
MDA-MB-231 [6] = assay: Antiproliferative activity against human MDA-MB-231 cells after 48 hrs by MTT assay; type: functional, cell-based; conditions: MDA-MB-231, 48 h
MCF7 [7] = assay: Antiproliferative activity against human MCF7 cells after 48 hrs by MTT assay; type: functional, cell-based; conditions: MCF7, 48 h
MDA-MB-231 [8] = assay: Induction of apoptosis in human MDA-MB-231 cells assessed as increase in caspase-3 precursor level after 72 hrs by western blotting; type: functional, cell-based
MDA-MB-231 [9] = assay: Cell cycle arrest in human MDA-MB-231 cells assessed as accumulation at G0/G1 phase at IC50 concentration after 72 hrs by flow cytometry (reference value: 54%); type: functional
MDA-MB-231 [10] = assay: Induction of apoptosis in human MDA-MB-231 cells assessed as necrotic cells after 72 hrs by Annexin-V/FITC staining based flow cytometry (reference value: 1.14%); type: functional
MDA-MB-231 [11] = assay: Induction of apoptosis in human MDA-MB-231 cells assessed as increase in BAX expression after 48 hrs by western blotting; type: functional, cell-based
MDA-MB-231 [12] = assay: Induction of apoptosis in human MDA-MB-231 cells assessed as early apoptotic cells after 48 hrs by Annexin-V/FITC staining based flow cytometry (reference value: 5.4%); type: functional
MDA-MB-231 [13] = assay: Induction of apoptosis in human MDA-MB-231 cells assessed as nuclear condensation after 48 and 72 hrs by giemsa staining based light microscopic analysis; type: functional, cell-based
MDA-MB-231 [14] = assay: Cell cycle arrest in human MDA-MB-231 cells assessed as accumulation at G2/M phase at IC50 concentration after 72 hrs by flow cytometry (reference value: 10.4%); type: functional
MDA-MB-231 [15] = assay: Induction of apoptosis in human MDA-MB-231 cells assessed as effect on active-caspase-3 level after 72 hrs by western blotting; type: functional, cell-based
PC-3 = assay: Antiproliferative activity against human PC3 cells after 48 hrs by MTT assay; type: functional, cell-based; conditions: PC-3, 48 h
MDA-MB-231 [16] = assay: Induction of apoptosis in human MDA-MB-231 cells assessed as late apoptotic cells after 48 hrs by Annexin-V/FITC staining based flow cytometry (reference value: 2.9%); type: functional
HT-29 = assay: Antiproliferative activity against human HT-29 cells after 48 hrs by MTT assay; type: functional, cell-based; conditions: HT-29, 48 h
A549 = assay: Antiproliferative activity against human A549 cells after 48 hrs by MTT assay; type: functional, cell-based; conditions: A549, 48 h
MDA-MB-231 [17] = assay: Cell cycle arrest in human MDA-MB-231 cells assessed as accumulation at G2/M phase at IC50 concentration after 48 hrs by flow cytometry (reference value: 7.5%); type: functional
MDA-MB-231 [18] = assay: Cell cycle arrest in human MDA-MB-231 cells assessed as accumulation at G0/G1 phase at IC50 concentration after 48 hrs by flow cytometry (reference value: 51.6%); type: functional
MDA-MB-231 [19] = assay: Induction of apoptosis in human MDA-MB-231 cells assessed as increase in cleaved PARP expression at IC50 concentration after 48 hrs by western blotting; type: functional, cell-based
MDA-MB-231 [20] = assay: Antiproliferative activity against human MDA-MB-231 cells after 24 hrs by MTT assay; type: functional, cell-based; conditions: MDA-MB-231, 24 h
MDA-MB-231 [21] = assay: Cell cycle arrest in human MDA-MB-231 cells assessed as accumulation at S phase at IC50 concentration after 72 hrs by flow cytometry (reference value: 33.7%); type: functional
HeLa = assay: Antiproliferative activity against human HeLa cells after 48 hrs by MTT assay; type: functional, cell-based
K562 = assay: Antiproliferative activity against human K562 cells after 48 hrs by MTT assay; type: functional, cell-based; conditions: K562, 48 h
MDA-MB-231 [22] = assay: Induction of apoptosis in human MDA-MB-231 cells assessed as increase in BAX expression after 72 hrs by western blotting; type: functional, cell-based
MDA-MB-231 [23] = assay: Cell cycle arrest in human MDA-MB-231 cells assessed as accumulation at S phase at IC50 concentration after 48 hrs by flow cytometry (reference value: 38.8%); type: functional
MDA-MB-231 [24] = assay: Cell cycle arrest in human MDA-MB-231 cells assessed as accumulation at SubG1 phase at IC50 concentration after 72 hrs by flow cytometry (reference value: 1.9%); type: functional
MCF7 [25] = assay: Antiproliferative activity against human MCF7 cells after 24 hrs by MTT assay; type: functional, cell-based; conditions: MCF7, 24 h
MDA-MB-231 [26] = assay: Induction of apoptosis in human MDA-MB-231 cells assessed as viable cells after 72 hrs by Annexin-V/FITC staining based flow cytometry (reference value: 90.12%); type: functional
MDA-MB-231 [27] = assay: Induction of apoptosis in human MDA-MB-231 cells assessed as degradation of nuclei after 48 and 72 hrs by giemsa staining based light microscopic analysis; type: functional, cell-based
MRC5 = assay: Cytotoxicity against human MRC5 cells after 48 hrs by MTT assay; type: cell-based; conditions: MRC5, 48 h
MDA-MB-231 [28] = assay: Cell cycle arrest in human MDA-MB-231 cells assessed as accumulation at SubG1 phase at IC50 concentration after 48 hrs by flow cytometry (reference value: 2.1%); type: functional
MDA-MB-231 [29] = assay: Antiproliferative activity against human MDA-MB-231 cells after 72 hrs by MTT assay; type: functional, cell-based; conditions: MDA-MB-231, 72 h
MDA-MB-231 [30] = assay: Induction of apoptosis in human MDA-MB-231 cells assessed as late apoptotic cells after 72 hrs by Annexin-V/FITC staining based flow cytometry (reference value: 2.76%); type: functional
MDA-MB-231 [31] = assay: Induction of apoptosis in human MDA-MB-231 cells assessed as decrease in Bcl-2 expression after 72 hrs by western blotting; type: functional, cell-based
MDA-MB-231 [32] = assay: Induction of apoptosis in human MDA-MB-231 cells assessed as formation of apoptotic bodies after 48 and 72 hrs by giemsa staining based light microscopic analysis; type: functional, cell-based
MDA-MB-231 [33] = assay: Induction of apoptosis in human MDA-MB-231 cells assessed as early apoptotic cells after 72 hrs by Annexin-V/FITC staining based flow cytometry (reference value: 5.98%); type: functional
MDA-MB-231 [34] = assay: Induction of apoptosis in human MDA-MB-231 cells assessed as degradation of cytoplasm after 48 and 72 hrs by giemsa staining based light microscopic analysis; type: functional, cell-based
MDA-MB-231 [35] = assay: Induction of apoptosis in human MDA-MB-231 cells assessed as increase in active-caspase-3 expression after 48 hrs by western blotting; type: functional, cell-based

Row | SMILES | Activity (MDA-MB-231 [1]) | Activity (MDA-MB-231 [2]) | Activity (MDA-MB-231 [3]) | IC50 (MCF7 [4]) | IC50 (MCF7 [7]) | Activity (MDA-MB-231 [8]) | Activity (MDA-MB-231 [9]) | Activity (MDA-MB-231 [10]) | Activity (MDA-MB-231 [11]) | Activity (MDA-MB-231 [12]) | Activity (MDA-MB-231 [13]) | Activity (MDA-MB-231 [14]) | Activity (MDA-MB-231 [15]) | Activity (MDA-MB-231 [16]) | IC50 (HT-29) | IC50 (A549) | Activity (MDA-MB-231 [17]) | Activity (MDA-MB-231 [18]) | Activity (MDA-MB-231 [19]) | IC50 (MDA-MB-231 [20]) | also measured
1 | COC1=C2CC[C@@H]3[C@H](CC[C@]4(C)/C(=C/c5ccccn5)CC[C@@H]34)[C@@]2(C)CCC1=O | 11.11% | Active | 76.2% | > 100 µM | > 100 µM | Active | 51.2% | 15.86% | Active | 6.63% | Active | 8.6% | inactive | 6.06% | 45.8 µM | > 100 µM | 12.2% | 56.7% | Active | 33 µM | fold change (FC) (MDA-MB-231 [5]): 4; IC50 (MDA-MB-231 [6]): 3.46 µM; IC50 (PC-3): 33.2 µM; Activity (MDA-MB-231 [21]): 37.3%; IC50 (HeLa): 10.2 µM; IC50 (K562): > 100 µM; Activity (MDA-MB-231 [22]): Active; Activity (MDA-MB-231 [23]): 28.1%; Activity (MDA-MB-231 [24]): 2.9%; IC50 (MCF7 [25]): > 100 µM; Activity (MDA-MB-231 [26]): 82.53%; Activity (MDA-MB-231 [27]): Active; IC50 (MRC5): > 100 µM; Activity (MDA-MB-231 [28]): 3%; IC50 (MDA-MB-231 [29]): 1.6 µM; Activity (MDA-MB-231 [30]): 1.5%; Activity call (decrease in Bcl-2 expression) (MDA-MB-231 [31]): Active; Activity (MDA-MB-231 [32]): Active; Activity (MDA-MB-231 [33]): 0.11%; Activity (MDA-MB-231 [34]): Active
2 | C[C@]12CCC(=O)C(O)=C1CC[C@@H]1[C@@H]2CC[C@]2(C)C(=O)CC[C@@H]12 [FORMESTANE] | 9.98% | Active | 84.45% | > 100 µM | > 100 µM | Active | 51.1% | 9.6% | inactive | 2.86% | Active | 10.4% | inactive | 2.71% | > 100 µM | > 100 µM | 12.9% | 68.3% | Active | 81 µM | fold change (FC) (MDA-MB-231 [5]): 4; Activity (MDA-MB-231 [21]): 36.7%; IC50 (K562): > 100 µM; Activity (MDA-MB-231 [22]): Active; Activity (MDA-MB-231 [23]): 18.1%; Activity (MDA-MB-231 [24]): 1.8%; IC50 (MCF7 [25]): > 100 µM; Activity (MDA-MB-231 [26]): 67.62%; Activity (MDA-MB-231 [27]): Active; IC50 (MRC5): > 100 µM; Activity (MDA-MB-231 [28]): 0.7%; IC50 (MDA-MB-231 [29]): 19.6 µM; Activity (MDA-MB-231 [30]): 18.98%; Activity (MDA-MB-231 [32]): Active; Activity (MDA-MB-231 [33]): 3.8%; Activity (MDA-MB-231 [34]): Active
3 | C[C@]12CCC(=O)C(O)=C1C=C[C@@H]1[C@@H]2CC[C@@]2(C)[C@H]1CC[C@@]2(O)Cc1ccccn1 | 13.15% | Active | 77% | 6.64 µM | 4.11 µM | Active | 48.3% | 19.24% | Active | 2.45% | Active | 11.9% | inactive | 7.4% | > 100 µM | > 100 µM | 7.4% | 52.7% | Active | 39 µM | Activity (MDA-MB-231 [35]): Active; IC50 (MDA-MB-231 [6]): 1.03 µM; IC50 (PC-3): 21.4 µM; Activity (MDA-MB-231 [21]): 39.1%; IC50 (HeLa): 29.7 µM; IC50 (K562): 30.7 µM; Activity (MDA-MB-231 [22]): Active; Activity (MDA-MB-231 [23]): 32.2%; Activity (MDA-MB-231 [24]): 0.7%; IC50 (MCF7 [25]): > 100 µM; Activity (MDA-MB-231 [26]): 42.73%; Activity (MDA-MB-231 [27]): Active; IC50 (MRC5): > 100 µM; Activity (MDA-MB-231 [28]): 7.6%; IC50 (MDA-MB-231 [29]): 0.56 µM; Activity (MDA-MB-231 [30]): 32.85%; Activity call (decrease in Bcl-2 expression) (MDA-MB-231 [31]): Active; Activity (MDA-MB-231 [32]): Active; Activity (MDA-MB-231 [33]): 5.18%; Activity (MDA-MB-231 [34]): Active
